Laboratory results: article PMC5681660, “Reduced hepatitis B and D viral entry using clinically applied drugs as novel inhibitors of the bile acid transporter NTCP” (Scientific Reports, 2017)
Counter-ions that a name gives are not always drawn. Like-named read-outs stand apart in the source and are kept apart here.

Legend:
human NTCP [1] = target: T1, human NTCP (Homo sapiens, UniProt Q14973); experiment: Screening taurocholate uptake assay (96-well, [14C]taurocholate, 10 µM drug)
T1 sequence (Q14973 1-349): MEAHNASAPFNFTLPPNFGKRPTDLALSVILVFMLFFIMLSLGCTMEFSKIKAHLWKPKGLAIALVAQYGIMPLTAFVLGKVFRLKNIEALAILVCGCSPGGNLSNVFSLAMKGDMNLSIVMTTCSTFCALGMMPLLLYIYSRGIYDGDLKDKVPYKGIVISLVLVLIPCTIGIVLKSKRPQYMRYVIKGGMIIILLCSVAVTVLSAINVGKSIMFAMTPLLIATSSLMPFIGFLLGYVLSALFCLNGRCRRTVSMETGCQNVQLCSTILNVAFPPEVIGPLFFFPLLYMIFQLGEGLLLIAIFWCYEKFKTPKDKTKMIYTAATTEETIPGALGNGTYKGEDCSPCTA

human NTCP [2] = target: T1, human NTCP; experiment: Screening fluorescent competitive Myrcludex B-FITC binding assay (96-well, 10 µM drug)
[3] = combined ranking from functional and binding screening assays
[4] = screen, 10 µM drug, taurocholate uptake
[5] = screen, 10 µM drug, Myrcludex B-FITC binding
[6] = Prestwick library screen, taurocholate uptake, 10 µM drug
[7] = ranking score beside the functional and binding assay B-scores of the screen
[8] = Prestwick library screen, Myrcludex B-FITC binding, 10 µM drug
[9] = Prestwick library screen, 10 µM drug, B-score of taurocholate uptake
[10] = combined ranking from functional and binding assay B-scores
[11] = Prestwick library screen, 10 µM drug, B-score of Myrcludex B-FITC binding

Structure (SMILES) | Ranking score (human NTCP [1]; [3]) | B-score functional assay (human NTCP [1]; [4]) | B-score binding assay (human NTCP [2]; [5]) | B-score functional assay (human NTCP [1]; [6]) | Ranking score (human NTCP [1]; [7]) | B-score binding assay (human NTCP [2]; [8]) | also measured
O=C(CCCN1CCC(n2c(O)nc3ccccc32)CC1)c1ccc(F)cc1 [Benperidol] | 422.659 | 0.351 | -1.201 | – | – | – | –
CNC(C)CCC=C(C)C.CNC(C)CCC=C(C)C.O=C(O)[C@@H](O)[C@H](O)[C@H](O)[C@@H](O)C(=O)O [Isometheptene mucate] | 319.923 | -0.726 | -0.672 | – | – | – | –
CC(c1cc2ccccc2s1)N(O)C(N)=O (stereo not drawn) [Zileuton] | – | – | – | -0.271 | 706.817 | 1.294 | –
O=C(NCC(O)CO)c1c(I)c(C(=O)NCC(O)CO)c(I)c(N(CCO)C(=O)CO)c1I (stereo not drawn) [Ioversol] | – | – | – | – | – | – | B-score functional assay (human NTCP [1]): 1.843; Ranking score (human NTCP [1]): 1044.38; B-score binding assay (human NTCP [2]): 0.541
C[C@H]1C[C@@H]2[C@H]([C@@H](O)C[C@@]3(C)[C@H]2CC[C@]3(O)C(=O)CO)[C@@]2(C)C=CC(=O)C=C12 [Methylprednisolone, 6-alpha] | – | – | – | – | – | – | B-score functional assay (human NTCP [1]; [9]): 0.477; Ranking score (human NTCP [1]; [10]): 941.018; B-score binding assay (human NTCP [2]; [11]): 0.779
NC(=O)C(c1ccccc1)(c1ccccc1)[C@@H]1CCN(CCc2ccc3c(c2)CCO3)C1 [Darifenacin hydrobromide] | – | – | – | – | – | – | B-score functional assay (human NTCP [1]): 2.058; Ranking score (human NTCP [1]): 899.12; B-score binding assay (human NTCP [2]): 0.023
CN(C)CC/C=C1\c2ccccc2CSc2ccccc21 [Dosulepin hydrochloride] | 296.985 | -2.363 | 0.311 | – | – | – | –
CCOc1ccc(Cc2nccc3cc(OCC)c(OCC)cc23)cc1OCC [Ethaverine hydrochloride] | – | – | – | – | – | – | B-score functional assay (human NTCP [1]; [9]): 0.024; Ranking score (human NTCP [1]; [10]): 885.91; B-score binding assay (human NTCP [2]; [11]): 1.651
CCn1cc(C(=O)O)c(=O)c2cc(F)c(N3CCNCC3)nc21 [Enoxacin] | – | – | – | – | – | – | B-score functional assay (human NTCP [1]; [9]): 3.277; Ranking score (human NTCP [1]; [10]): 1072.03; B-score binding assay (human NTCP [2]; [11]): 0.523
CC(C)[N+](C)(CCC(C(N)=O)(c1ccccc1)c1ccccc1)C(C)C [Isopropamide iodide] | – | – | – | 0.036 | 698.928 | 0.056 | –
CC(=O)O[C@H]1C[C@@H]2CC[C@@H]3[C@H](CC[C@@]4(C)[C@H]3C[C@H]([N+]3(C)CCCCC3)[C@@H]4OC(C)=O)[C@@]2(C)C[C@@H]1[N+]1(C)CCCCC1 [Pancuronium bromide] | – | – | – | 0.614 | 767.5 | -0.008 | –
COc1ccccc1N1CCN(CCCNc2cc(=O)n(C)c(=O)n2C)CC1 [Urapidil hydrochloride] | – | – | – | – | – | – | B-score functional assay (human NTCP [1]; [9]): 0.807; Ranking score (human NTCP [1]; [10]): 1027.42; B-score binding assay (human NTCP [2]; [11]): 1.015
Nc1nc2c(ncn2COCCO)c(=O)[nH]1 [Acyclovir] | – | – | – | 0.026 | 658.696 | 0 | –
Cn1c(=O)c2[nH]cnc2n(C)c1=O [Theophylline monohydrate] | 321.683 | -1.998 | 0.205 | – | – | – | –
N[C@@H](Cc1cc(I)c(Oc2cc(I)c(O)c(I)c2)c(I)c1)C(=O)O [Thyroxine (L)] | 435.061 | 0.005 | -0.765 | – | – | – | –
COc1ccc(C(=O)c2ccccc2O)c(O)c1 [Dioxybenzone] | 401.91 | 0.002 | -0.95 | – | – | – | –
NC[C@H]1O[C@H](O[C@H]2[C@H](O[C@@H]3O[C@H](CO)[C@@H](O)[C@H]3O)[C@@H](O)[C@H](N)C[C@@H]2N)[C@H](N)[C@@H](O)[C@@H]1O.O=S(=O)(O)O [Ribostamycin sulfate salt] | – | – | – | – | – | – | B-score functional assay (human NTCP [1]; [9]): 0.797; Ranking score (human NTCP [1]; [10]): 1035.72; B-score binding assay (human NTCP [2]; [11]): 1.097
CCN[C@@H](C)Cc1cccc(C(F)(F)F)c1 [Dexfenfluramine hydrochloride] | 401.597 | -0.697 | -0.169 | – | – | – | –
C[C@H](N[C@@H](CCc1ccccc1)C(=O)O)C(=O)N1CCC[C@H]1C(=O)O.O.O [Enalaprilat dihydrate] | – | – | – | 0.051 | 844.248 | 0.874 | –

Structure (SMILES) | Ranking score (human NTCP [1]; [3]) | B-score functional assay (human NTCP [1]; [4]) | B-score binding assay (human NTCP [2]; [5]) | B-score functional assay (human NTCP [1]; [6]) | Ranking score (human NTCP [1]; [7]) | B-score binding assay (human NTCP [2]; [8]) | also measured
CSc1ccc2c(c1)C(N1CCN(C)CC1)Cc1ccccc1S2.O=C(O)/C=C\C(=O)O (stereo not drawn) [Methiothepin maleate] | 441.5 | 4.841 | -1.545 | – | – | – | –
CN(C)CCOC(c1ccc(Cl)cc1)c1ccccn1.O=C(O)/C=C\C(=O)O (stereo not drawn) [Carbinoxamine maleate salt] | 433.532 | 3.2 | -1.565 | – | – | – | –
COC(=O)Nc1nc2cc(C(=O)c3ccc(F)cc3)ccc2[nH]1 [Flubendazol] | – | – | – | 1.185 | 683.74 | -0.335 | –
S=c1[nH]cnc2nc[nH]c12 [Mercaptopurine] | 451.727 | -0.084 | -0.534 | – | – | – | –
Cc1cnc(C(=O)O)c[n+]1[O-] [Acipimox] | – | – | – | – | – | – | B-score functional assay (human NTCP [1]; [9]): 0.91; Ranking score (human NTCP [1]; [10]): 894.262; B-score binding assay (human NTCP [2]; [11]): 0.142
CCN(CC)CC(=O)Nc1c(C)cccc1C [Lidocaine hydrochloride] | – | – | – | 0.516 | 815.009 | 0.07 | –
CCCNCC(O)COc1ccccc1C(=O)CCc1ccccc1 (stereo not drawn) [Propafenone hydrochloride] | – | – | – | -0.211 | 771.984 | 2.716 | –
Cc1cc(=O)oc2cc(O)ccc12 [Hymecromone] | 448.437 | -0.811 | 0.036 | – | – | – | –
Cc1ccc(C(=O)c2ccc(CC(=O)O)n2C)cc1 [Tolmetin sodium salt dihydrate] | – | – | – | – | – | – | B-score functional assay (human NTCP [1]; [9]): 0.203; Ranking score (human NTCP [1]; [10]): 996.915; B-score binding assay (human NTCP [2]; [11]): 2.458
COc1ccc(C(=O)NCc2cccnc2)cc1C(=O)NCc1cccnc1.O [Picotamide monohydrate] | – | – | – | -0.041 | 752.987 | 0.672 | –
CC[C@]12CCCN3CCc4c(n(c5ccccc45)[C@@](O)(C(=O)OC)C1)[C@@H]32 [Vincamine] | – | – | – | -0.257 | 659.7 | 0.616 | –
O=C(O)Cc1sc(-c2ccccc2)nc1-c1ccc(Cl)cc1 [Fentiazac] | 402.269 | -1.501 | 0.475 | – | – | – | –
CC(=O)O[C@]1(C(C)=O)CC[C@H]2[C@@H]3C=C(C)C4=CC(=O)CC[C@]4(C)[C@H]3CC[C@@]21C [Megestrol acetate] | – | – | – | – | – | – | B-score functional assay (human NTCP [1]; [9]): 0.476; Ranking score (human NTCP [1]; [10]): 869.581; B-score binding assay (human NTCP [2]; [11]): 0.319
Cc1ccc(-c2ncc(Cl)cc2-c2ccc(S(C)(=O)=O)cc2)cn1 [Etoricoxib] | 393.756 | -0.663 | -0.254 | – | – | – | –
Cc1cnc(C(=O)NCCc2ccc(S(=O)(=O)NC(=O)NC3CCCCC3)cc2)cn1 [Glipizide] | 412.592 | -1.639 | 0.997 | – | – | – | –
CCN(CC)CCOC(=O)C(c1ccccc1)c1ccccc1 [Adiphenine hydrochloride] | 440.174 | -0.012 | -0.701 | – | – | – | –
CCN(CC)C(=O)N1CCN(C)CC1 [Diethylcarbamazine citrate] | – | – | – | 0.671 | 718.594 | -0.121 | –
CCCCC(C)(O)C/C=C/[C@H]1[C@H](O)CC(=O)[C@@H]1CCCCCCC(=O)OC (mixture of isomers) [Misoprostol] | – | – | – | -0.231 | 671.728 | 0.662 | –
